#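 Interpolation was linear, between the two tested concentrations surrounding the appropriate level; five concentrations were tested over 48 hours in 96-well plates. The concentration for full growth arrest is given as TGI.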
# Columns and labels:
# Test in all cases: NCI tumour cell line growth inhibition, 48 h
# CCRF-CEM leukemia = tested on: CCRF-CEM leukemia
# HL-60(TB) leukemia = tested on: HL-60(TB) leukemia
# MALME-3M melanoma = tested on: MALME-3M melanoma
# SW-620 colon = tested on: SW-620 colon
# OVCAR-3 ovarian = tested on: OVCAR-3 ovarian
# NCI-H23 lung = tested on: NCI-H23 lung
# SF-539 CNS = tested on: SF-539 CNS
# SF-295 CNS = tested on: SF-295 CNS
# KM12 colon = tested on: KM12 colon
# NCI-H226 lung = tested on: NCI-H226 lung
# SNB-75 CNS = tested on: SNB-75 CNS
# MDA-MB-435 = tested on: MDA-MB-435
# HOP-62 NSCLC = tested on: HOP-62 NSCLC
# MDA-MB-231 breast = tested on: MDA-MB-231 breast
# LOX IMVI melanoma = tested on: LOX IMVI melanoma
# MOLT-4 leukemia = tested on: MOLT-4 leukemia
# U251 CNS = tested on: U251 CNS
# K-562 leukemia = tested on: K-562 leukemia
# M14 melanoma = tested on: M14 melanoma
# UACC-62 melanoma = tested on: UACC-62 melanoma
# IGROV1 ovarian = tested on: IGROV1 ovarian
# PC-3 prostate = tested on: PC-3 prostate
# NCI-H460 lung = tested on: NCI-H460 lung
# OVCAR-4 ovarian = tested on: OVCAR-4 ovarian
# OVCAR-5 ovarian = tested on: OVCAR-5 ovarian
# RPMI-8226 leukemia = tested on: RPMI-8226 leukemia
# 786-0 renal = tested on: 786-0 renal
# SNB-19 CNS = tested on: SNB-19 CNS
# DU-145 prostate = tested on: DU-145 prostate
# MCF7 breast = tested on: MCF7 breast
# SK-MEL-2 melanoma = tested on: SK-MEL-2 melanoma
# RXF 393 renal = tested on: RXF 393 renal
# T-47D breast = tested on: T-47D breast
# SK-OV-3 ovarian = tested on: SK-OV-3 ovarian
# A498 renal = tested on: A498 renal
# MDA-N = tested on: MDA-N
# SF-268 CNS = tested on: SF-268 CNS
# OVCAR-8 ovarian = tested on: OVCAR-8 ovarian
# HOP-92 NSCLC = tested on: HOP-92 NSCLC
# BT-549 breast = tested on: BT-549 breast
# SN12C renal = tested on: SN12C renal
# SK-MEL-28 melanoma = tested on: SK-MEL-28 melanoma
# UO-31 renal = tested on: UO-31 renal
# HCT-116 colon = tested on: HCT-116 colon
# SK-MEL-5 melanoma = tested on: SK-MEL-5 melanoma
# TK-10 renal = tested on: TK-10 renal
# HCC-2998 colon = tested on: HCC-2998 colon
# ACHN renal = tested on: ACHN renal
# COLO 205 colon = tested on: COLO 205 colon
# UACC-257 melanoma = tested on: UACC-257 melanoma
# HS 578T breast = tested on: HS 578T breast
# HCT-15 colon = tested on: HCT-15 colon
# HT29 colon = tested on: HT29 colon
# CAKI-1 renal = tested on: CAKI-1 renal
# A549 NSCLC = tested on: A549 NSCLC
# NCI/ADR-RES ovarian = tested on: NCI/ADR-RES ovarian
# NCI-H522 lung = tested on: NCI-H522 lung
# EKVX NSCLC = tested on: EKVX NSCLC
smiles,measurement,setting,value
COc1ccc(/C(Nc2ccccc2)=C(\CCl)c2ccccc2)cc1OC,TGI,CCRF-CEM leukemia,65.5 µM
same,TGI,HL-60(TB) leukemia,50 µM
same,TGI,MALME-3M melanoma,> 100 µM
same,TGI,SW-620 colon,> 100 µM
same,TGI,OVCAR-3 ovarian,> 100 µM
same,TGI,NCI-H23 lung,> 100 µM
same,TGI,SF-539 CNS,> 100 µM
same,TGI,SF-295 CNS,> 100 µM
same,TGI,KM12 colon,> 100 µM
same,TGI,NCI-H226 lung,> 100 µM
same,TGI,SNB-75 CNS,> 100 µM
same,TGI,MDA-MB-435,> 100 µM
same,TGI,HOP-62 NSCLC,> 100 µM
same,TGI,MDA-MB-231 breast,> 100 µM
same,TGI,LOX IMVI melanoma,> 100 µM
same,TGI,MOLT-4 leukemia,> 100 µM
same,TGI,U251 CNS,64.7 µM
same,TGI,K-562 leukemia,64.9 µM
same,TGI,M14 melanoma,> 100 µM
same,TGI,UACC-62 melanoma,> 100 µM
same,TGI,IGROV1 ovarian,> 100 µM
same,TGI,PC-3 prostate,> 100 µM
same,TGI,NCI-H460 lung,> 100 µM
same,TGI,OVCAR-4 ovarian,> 100 µM
same,TGI,OVCAR-5 ovarian,> 100 µM
same,TGI,RPMI-8226 leukemia,> 100 µM
same,TGI,786-0 renal,> 100 µM
same,TGI,SNB-19 CNS,> 100 µM
same,TGI,DU-145 prostate,> 100 µM
same,TGI,MCF7 breast,> 100 µM
same,TGI,SK-MEL-2 melanoma,79.9 µM
same,TGI,RXF 393 renal,> 100 µM
same,TGI,T-47D breast,> 100 µM
same,TGI,SK-OV-3 ovarian,> 100 µM
same,TGI,A498 renal,> 100 µM
same,TGI,MDA-N,> 100 µM
same,TGI,SF-268 CNS,> 100 µM
same,TGI,OVCAR-8 ovarian,> 100 µM
same,TGI,HOP-92 NSCLC,> 100 µM
same,TGI,BT-549 breast,> 100 µM
same,TGI,SN12C renal,> 100 µM
same,TGI,SK-MEL-28 melanoma,> 100 µM
same,TGI,UO-31 renal,> 100 µM
same,TGI,HCT-116 colon,48.9 µM
same,TGI,SK-MEL-5 melanoma,72.2 µM
same,TGI,TK-10 renal,> 100 µM
same,TGI,HCC-2998 colon,> 100 µM
same,TGI,ACHN renal,> 100 µM
same,TGI,COLO 205 colon,> 100 µM
same,TGI,UACC-257 melanoma,> 100 µM
same,TGI,HS 578T breast,> 100 µM
same,TGI,HCT-15 colon,> 100 µM
same,TGI,HT29 colon,> 100 µM
same,TGI,CAKI-1 renal,> 100 µM
same,TGI,A549 NSCLC,> 100 µM
same,TGI,NCI/ADR-RES ovarian,> 100 µM
same,TGI,NCI-H522 lung,> 100 µM
same,TGI,EKVX NSCLC,> 100 µM
Cc1cccc2sc(NC(=O)NS(=O)(=O)n3cnc4ccccc43)nc12,TGI,CCRF-CEM leukemia,> 100 µM
same,TGI,HL-60(TB) leukemia,> 100 µM
same,TGI,MALME-3M melanoma,72 µM
same,TGI,SW-620 colon,> 100 µM
same,TGI,OVCAR-3 ovarian,46.8 µM
same,TGI,NCI-H23 lung,43.6 µM
same,TGI,SF-539 CNS,78 µM
same,TGI,SF-295 CNS,50.1 µM
same,TGI,KM12 colon,> 100 µM
same,TGI,NCI-H226 lung,> 100 µM
same,TGI,SNB-75 CNS,63.3 µM
same,TGI,MDA-MB-435,> 100 µM
same,TGI,HOP-62 NSCLC,> 100 µM
same,TGI,MDA-MB-231 breast,93.3 µM
same,TGI,MOLT-4 leukemia,88 µM
same,TGI,U251 CNS,48.2 µM
same,TGI,M14 melanoma,> 100 µM
same,TGI,UACC-62 melanoma,34.3 µM
same,TGI,IGROV1 ovarian,51.1 µM
same,TGI,PC-3 prostate,95.3 µM
same,TGI,NCI-H460 lung,> 100 µM
same,TGI,OVCAR-4 ovarian,> 100 µM
same,TGI,OVCAR-5 ovarian,89.4 µM
same,TGI,RPMI-8226 leukemia,84.3 µM
same,TGI,786-0 renal,> 100 µM
same,TGI,SNB-19 CNS,> 100 µM
same,TGI,DU-145 prostate,> 100 µM
same,TGI,MCF7 breast,> 100 µM
same,TGI,SK-MEL-2 melanoma,35.6 µM
same,TGI,RXF 393 renal,49.1 µM
same,TGI,T-47D breast,62.6 µM
same,TGI,SK-OV-3 ovarian,> 100 µM
same,TGI,A498 renal,72.3 µM
same,TGI,MDA-N,> 100 µM
same,TGI,SF-268 CNS,> 100 µM
same,TGI,OVCAR-8 ovarian,67.1 µM
same,TGI,HOP-92 NSCLC,38.7 µM
same,TGI,BT-549 breast,59.9 µM
same,TGI,SN12C renal,> 100 µM
same,TGI,SK-MEL-28 melanoma,> 100 µM
same,TGI,UO-31 renal,61.5 µM
same,TGI,HCT-116 colon,99.3 µM
same,TGI,SK-MEL-5 melanoma,56.3 µM
same,TGI,TK-10 renal,> 100 µM
same,TGI,HCC-2998 colon,30.3 µM
same,TGI,ACHN renal,> 100 µM
same,TGI,COLO 205 colon,> 100 µM
same,TGI,UACC-257 melanoma,74.8 µM
same,TGI,HS 578T breast,52.1 µM
same,TGI,HCT-15 colon,> 100 µM
same,TGI,HT29 colon,> 100 µM
same,TGI,CAKI-1 renal,> 100 µM
same,TGI,A549 NSCLC,> 100 µM
same,TGI,NCI/ADR-RES ovarian,> 100 µM
same,TGI,NCI-H522 lung,62.9 µM
same,TGI,EKVX NSCLC,> 100 µM
Cc1cc2nc3c(C#N)c(-c4ccccc4)/c(=C\Nc4ccc(F)cc4)c(=O)n3c2cc1C,TGI,CCRF-CEM leukemia,> 100 µM
same,TGI,MALME-3M melanoma,> 100 µM
same,TGI,SW-620 colon,> 100 µM
same,TGI,OVCAR-3 ovarian,> 100 µM
same,TGI,NCI-H23 lung,> 100 µM
same,TGI,SF-539 CNS,> 100 µM
same,TGI,SF-295 CNS,> 100 µM
same,TGI,KM12 colon,> 100 µM
same,TGI,NCI-H226 lung,> 100 µM
same,TGI,SNB-75 CNS,> 100 µM
same,TGI,MDA-MB-435,> 100 µM
same,TGI,HOP-62 NSCLC,> 100 µM
same,TGI,MDA-MB-231 breast,> 100 µM
same,TGI,LOX IMVI melanoma,> 100 µM
same,TGI,U251 CNS,> 100 µM
same,TGI,M14 melanoma,> 100 µM
same,TGI,IGROV1 ovarian,> 100 µM
same,TGI,PC-3 prostate,> 100 µM
same,TGI,NCI-H460 lung,> 100 µM
same,TGI,OVCAR-4 ovarian,> 100 µM
same,TGI,OVCAR-5 ovarian,> 100 µM
same,TGI,RPMI-8226 leukemia,> 100 µM
same,TGI,786-0 renal,> 100 µM
same,TGI,SNB-19 CNS,80.9 µM
same,TGI,MCF7 breast,> 100 µM
same,TGI,SK-MEL-2 melanoma,> 100 µM
same,TGI,RXF 393 renal,> 100 µM
same,TGI,T-47D breast,> 100 µM
same,TGI,SK-OV-3 ovarian,> 100 µM
same,TGI,A498 renal,> 100 µM
same,TGI,MDA-N,> 100 µM
same,TGI,SF-268 CNS,> 100 µM
same,TGI,OVCAR-8 ovarian,> 100 µM
same,TGI,BT-549 breast,> 100 µM
same,TGI,SN12C renal,> 100 µM
same,TGI,SK-MEL-28 melanoma,> 100 µM
same,TGI,UO-31 renal,> 100 µM
same,TGI,HCT-116 colon,> 100 µM
same,TGI,SK-MEL-5 melanoma,> 100 µM
same,TGI,TK-10 renal,> 100 µM
same,TGI,HCC-2998 colon,> 100 µM
same,TGI,ACHN renal,> 100 µM
same,TGI,COLO 205 colon,> 100 µM
same,TGI,UACC-257 melanoma,> 100 µM
same,TGI,HCT-15 colon,> 100 µM
same,TGI,CAKI-1 renal,> 100 µM
same,TGI,A549 NSCLC,> 100 µM
same,TGI,NCI/ADR-RES ovarian,> 100 µM
same,TGI,NCI-H522 lung,> 100 µM
same,TGI,EKVX NSCLC,> 100 µM
